According to patent publication US20220062371A1, “LIGAND-DRUG-CONJUGATES AS SUBSTRATES FOR SELECTIVE CLEAVAGE BY THE EXOPEPTIDASE ACTIVITY OF CATHEPSIN B” (DEBIOPHARM RESEARCH & MANUFACTURING S.A., priority 2017, published 2022):
Read-outs that look alike come from different tables or passages of the source. Positions of bridges follow the written chain, without caps; N, C: chain ends. Non-standard residues stand in square brackets, D forms with d. Residues, ends and D or L forms follow the SMILES beside them. Groups on a side chain read outwards from the residue. Chains are numbered I, II in the order given. *: point of attachment. DM1Mal(CH2)2CO = COc1cc2cc(c1Cl)N(C)C(=O)C[C@H](OC(=O)[C@H](C)N(C)C(=O)CCSC1CC(=O)N(CCC(=O)*)C1=O)[C@]1(C)O[C@H]1[C@H](C)[C@@H]1C[C@@](O)(NC(=O)O1)[C@H](OC)/C=C/C=C(\C)C2; Camptothecin(20S-OCO) = CC[C@@]1(OC(=O)*)C(=O)OCc2c1cc1n(c2=O)Cc2cc3ccccc3nc2-1; X2 = CC(=O)N[C@@H](CSC1CC(=O)N(CCC(=O)*)C1=O)C(=O)O; Dolaproine = CO[C@@H]([C@@H]1CCCN1)[C@@H](C)C(=O)O; Dil = CC[C@H](C)[C@H](NC)[C@@H](CC(=O)O)OC; NMe2Val = CC(C)[C@@H](C(=O)*)N(C)C; PEG5 = NCCOCCOCCOCCOCCOCCC(=O)O; Cit = NC(=O)NCCC[C@H](N)C(=O)O; PEG4 = NCCOCCOCCOCCOCCC(=O)O; Dap = NC[C@H](N)C(=O)O

Biological target: T1, recombinant human Cathepsin B (Homo sapiens, UniProt P07858)
T1 construct: purchased R&D Systems (Bio-Techne AG) 953-CY-010
Test: Recombinant human Cathepsin B-induced cleavage (in vitro enzymatic cleavage assay, UHPLC-MS/MS)
Format: biochemical
Details: for half-life at 10 μM: human; for Ratio (T1/2 Compound/T1/2 Reference): reference Cys-MC-Val-Cit-PABC-MMAF; for cleavage rate compared to reference PABC compound (times faster): versus Cys-MC-Val-Cit-PABC-MMAF
Description: Cat B-induced cleavage of the compounds of the present invention was evaluated according to the in vitro enzymatic cleavage assay using recombinant human Cathepsin B and UHPLC-MS/MS analysis as described below.
Reference compounds Cys-MC-Val-Cit-PABC-MMAF and MMAF were used as positive controls.
The in vitro enzymatic assay was conducted at 37° C. with the test compounds at a concentration of 10 μM (2.5 μM when the test compound is an antibody-drug conjugate) in the presence of activated recombinant human Cathepsin B enzyme at 2 μg/mL in a 25 mM MES buffer pH 5.0. The enzymatic cleavage reaction was stopped for each defined time point by mixing an equal volume of acetonitrile+0.1% FA containing an internal standard (warfarine at 8 μM).
Analysis was conducted using a Waters Acquity UPLC System coupled to a Waters Xevo TQ triple quad mass spectrometer. UHPLC was conducted depending on the test compounds with a BEH C8 1.7 μm 100×2.1 mm or BEH C18 1.7 μm 50×2.1 mm or HSS T3 1.7 μm 50×2.1 mm columns heated at 45° C. or 50° C. and fitted with 2 μm insert filter pre-columns (available from Waters), and solvent systems A1 (H2O+0.1% FA) and B1 (acetonitrile+0.1% FA) at a flow rate of 0.6 mL/min and a 10-95% gradient of B1 over 1.9 min.
MS/MS was performed using electrospray ionization (ESI) interface in positive mode and specific MRM transitions for each tested compound.

[1] = pH 5, 10 μM test compound, Cathepsin B 2 μg/mL, 25 mM MES buffer pH 5.0, 37° C., read-out: T1/2 Compound
[2] = 10 μM test compound, Cathepsin B 2 μg/mL, 25 mM MES buffer pH 5.0, 37° C., read-out: T1/2 Compound
[3] = pH 5, text and figure legends, 10 μM test compound, read-out: t1/2 (Exo-Cat B-induced drug release study)

Compound	half-life at 10 μM [1]	Ratio (T1/2 Compound/T1/2 Reference)	half-life at 10 μM [2]	cleavage rate compared to reference PABC compound (times faster)	half-life at 10 μM [3]	Cat B-induced cleavage, in words
CC[C@H](C)[C@@H]([C@@H](CC(=O)N1CCC[C@H]1[C@H](OC)[C@@H](C)C(=O)N[C@@H](Cc1ccccc1)C(=O)N[C@@H](CCCNC(=N)N)C(=O)N[C@@H](Cc1ccccc1)C(=O)N[C@@H](CCCCNC(=O)CCOCCOCCOCCOCCNC(=O)CCN1C(=O)CC(SC[C@H](NC(C)=O)C(=O)O)C1=O)C(=O)O)OC)N(C)C(=O)[C@@H](NC(=O)[C@H](C(C)C)N(C)C)C(C)C (stereo partly drawn) [Compound 3, AF-Arg-Phe-Lys(PEG4-Mal-Cys-Ac)-OH] (NMe2Val-V[Dil][Dolaproine]FRFK([PEG4-X2])-OH)	1.4 min	0.11	–	–	–	–
COc1cc2cc(c1Cl)N(C)C(=O)C[C@H](OC(=O)[C@H](C)N(C)C(=O)CCSC1CC(=O)N(CCC(=O)NCCCC[C@H](NC(=O)[C@H](CCCCN)NC(=O)[C@H](Cc3ccccc3)NC(=O)[C@H](Cc3ccccc3)NC(=O)[C@H](CCCCNC(=O)CCN3C(=O)CC(SCCC(=O)N(C)[C@@H](C)C(=O)O[C@H]4CC(=O)N(C)c5cc(cc(OC)c5Cl)C/C(C)=C/C=C/[C@@H](OC)[C@@]5(O)C[C@H](OC(=O)N5)[C@@H](C)[C@@H]5O[C@@]45C)C3=O)NC(=O)[C@H](CCCCN)NC(=O)[C@H](Cc3ccccc3)NC(=O)CCOCCOCCOCCOCCNC(=O)CCN3C(=O)CC(SC[C@H](NC(C)=O)C(=O)O)C3=O)C(=O)N[C@@H](Cc3ccccc3)C(=O)O)C1=O)[C@]1(C)O[C@H]1[C@H](C)[C@@H]1C[C@@](O)(NC(=O)O1)[C@H](OC)/C=C/C=C(\C)C2 (stereo partly drawn) [Compound 29, Ac-Cys-Mal-PEG4-[Phe-Lys-Lys(Mal-DM1)-Phe]2-OH] ({X2-PEG4}-FKK(DM1Mal(CH2)2CO)FFKK(DM1Mal(CH2)2CO)F-OH)	–	0.23	2.4 min	~5 fold	–	–
COc1cc2cc(c1Cl)N(C)C(=O)C[C@H](OC(=O)[C@H](C)N(C)C(=O)CCSC1CC(=O)N(CCC(=O)NCCCC[C@H](NC(=O)[C@H](CCCCN)NC(=O)[C@H](Cc3ccccc3)NC(=O)CCOCCOCCOCCOCCNC(=O)CCN3C(=O)CC(SC[C@H](NC(C)=O)C(=O)O)C3=O)C(=O)N[C@@H](Cc3ccccc3)C(=O)O)C1=O)[C@]1(C)O[C@H]1[C@H](C)[C@@H]1C[C@@](O)(NC(=O)O1)[C@H](OC)/C=C/C=C(\C)C2 (stereo partly drawn) [Compound 12, Ac-Cys-Mal-PEG4-Phe-Lys-Lys(Mal-DM1)-Phe-OH] ({X2-PEG4}-FKK(DM1Mal(CH2)2CO)F-OH)	1.5 min	–	–	–	1.53 min	–
CC[C@H](C)[C@@H]([C@@H](CC(=O)N1CCC[C@H]1[C@H](OC)[C@@H](C)C(=O)N[C@@H](Cc1ccccc1)C(=O)N[C@@H](CCCNC(=N)N)C(=O)N[C@@H](CCCCNC(=O)CCOCCOCCOCCOCCOCCNC(=O)CCN1C(=O)CC(SC[C@H](NC(C)=O)C(=O)O)C1=O)C(=O)N[C@@H](Cc1ccccc1)C(=O)O)OC)N(C)C(=O)[C@@H](NC(=O)[C@H](C(C)C)N(C)C)C(C)C (stereo partly drawn) [Compound 1, AF-Arg-Lys(PEG4-Mal-Cys-Ac)-Phe-OH] (NMe2Val-V[Dil][Dolaproine]FRK([PEG5-X2])F-OH)	1.5 min	0.12	–	–	–	–
Arg-PEG4-Phe-Arg-Glu(Sar-OCPT)-Arg-Phe-Arg-OH [Compound 16]	–	–	–	–	–	rapidly cleaved
CC[C@@]1(OC(=O)NC[C@H](NC(=O)[C@H](CCCNC(=N)N)NC(=O)[C@H](Cc2ccccc2)NC(=O)CCOCCOCCOCCOCCOCCNC(=O)[C@@H](N)CCCNC(=N)N)C(=O)N[C@@H](Cc2ccccc2)C(=O)O)C(=O)OCc2c1cc1n(c2=O)Cc2cc3ccccc3nc2-1 [Compound 9, Arg-PEG4-Phe-Arg-Dap(CO-CPT)-Phe-OH] (H-R[PEG5]FR[Dap](Camptothecin(20S-OCO))F-OH; N-terminus assumed)	4.5 min	0.63	–	–	–	–
Arg-PEG4-Phe-Arg-[Glu(Sar-OCPT)-Phe]2-OH [Compound 17]	–	–	–	–	–	rapidly released
CC[C@H](C)[C@@H]([C@@H](CC(=O)N1CCC[C@H]1[C@H](OC)[C@@H](C)C(=O)N[C@@H](Cc1ccccc1)C(=O)N[C@@H](CCCNC(N)=O)C(=O)N[C@@H](CCCCNC(=O)CCN1C(=O)CC(SCCC(=O)N(C)[C@@H](C)C(=O)O[C@H]2CC(=O)N(C)c3cc(cc(OC)c3Cl)C/C(C)=C/C=C/[C@@H](OC)[C@@]3(O)C[C@H](OC(=O)N3)[C@@H](C)[C@@H]3O[C@@]23C)C1=O)C(=O)N[C@@H](Cc1ccccc1)C(=O)N[C@@H](CCCCNC(=O)CCOCCOCCOCCOCCNC(=O)CCN1C(=O)CC(SC[C@H](NC(C)=O)C(=O)O)C1=O)C(=O)N[C@@H](Cc1ccccc1)C(=O)O)OC)N(C)C(=O)[C@@H](NC(=O)[C@H](C(C)C)N(C)C)C(C)C (stereo partly drawn) [Compound 31, AF-Cit-Lys(Mal-DM1)-Phe-Lys(PEG4-Mal-Cys-Ac)-Phe-OH] (NMe2Val-V[Dil][Dolaproine]F[Cit]K(DM1Mal(CH2)2CO)FK([PEG4-X2])F-OH)	–	0.08	1.08 min	more than 10 fold	–	–
CC[C@H](C)[C@@H]([C@@H](CC(=O)N1CCC[C@H]1[C@H](OC)[C@@H](C)C(=O)N[C@@H](Cc1ccccc1)C(=O)NCCCC[C@H](NC(=O)[C@H](CCCCN)NC(=O)[C@H](Cc1ccccc1)NC(=O)CCOCCOCCOCCOCCNC(=O)CCN1C(=O)CC(SC[C@H](NC(C)=O)C(=O)O)C1=O)C(=O)N[C@@H](Cc1ccccc1)C(=O)O)OC)N(C)C(=O)[C@@H](NC(=O)[C@H](C(C)C)N(C)C)C(C)C (stereo partly drawn) [Compound 13, Ac-Cys-Mal-PEG4-Phe-Lys-Lys(AF)-Phe-OH] (I: {X2-PEG4}-FKKF-OH / II: NMe2Val-V[Dil][Dolaproine]F; amide I:3-II:C)	1.6 min	0.15	–	–	1.62 min	–
COc1cc2cc(c1Cl)N(C)C(=O)C[C@H](OC(=O)[C@H](C)N(C)C(=O)CCSC1CC(=O)N(C[C@H]3CC[C@H](C(=O)NCCCC[C@H](NC(=O)[C@H](CCCNC(N)=O)NC(=O)[C@H](Cc4ccccc4)NC(=O)CCOCCOCCOCCOCCOCCNC(=O)CN4C(=O)CC(SC[C@H](NC(C)=O)C(=O)O)C4=O)C(=O)N[C@@H](Cc4ccc(O)cc4)C(=O)O)CC3)C1=O)[C@]1(C)O[C@H]1[C@H](C)[C@@H]1C[C@@](O)(NC(=O)O1)[C@H](OC)/C=C/C=C(\C)C2 (stereo partly drawn) [Compound 27, Ac-Cys-Ma-PEG5-Phe-Cit-Lys(Mcc-DM1)-Tyr-OH]	0.06 min	0.005	–	~2300 fold	–	–
CC[C@H](C)[C@@H]([C@@H](CC(=O)N1CCC[C@H]1[C@H](OC)[C@@H](C)C(=O)N[C@@H](Cc1ccccc1)C(=O)N[C@@H](CCCNC(N)=O)C(=O)N[C@@H](CCCCNC(=O)CCOCCOCCOCCOCCNC(=O)CCN1C(=O)CC(SC[C@H](NC(C)=O)C(=O)O)C1=O)C(=O)N[C@@H](Cc1ccccc1)C(=O)O)OC)N(C)C(=O)[C@@H](NC(=O)[C@H](C(C)C)N(C)C)C(C)C (stereo partly drawn) [Compound 19, AF-Cit-Lys(PEG4-Mal-Cys-Ac)-Phe-OH] (NMe2Val-V[Dil][Dolaproine]F[Cit]K([PEG4-X2])F-OH)	1.1 min	0.09	–	–	–	–
CC[C@H](C)[C@@H]([C@@H](CC(=O)N1CCC[C@H]1[C@H](OC)[C@@H](C)C(=O)N[C@@H](Cc1ccccc1)C(=O)NCCCC[C@H](NC(=O)[C@H](CCCNC(=N)N)NC(=O)[C@H](CCCCNC(=O)CCN1C(=O)CC(SCCC(=O)N(C)[C@@H](C)C(=O)O[C@H]2CC(=O)N(C)c3cc(cc(OC)c3Cl)C/C(C)=C/C=C/[C@@H](OC)[C@@]3(O)C[C@H](OC(=O)N3)[C@@H](C)[C@@H]3O[C@@]23C)C1=O)NC(=O)[C@H](CCCNC(=N)N)NC(=O)[C@H](Cc1ccccc1)NC(=O)CCOCCOCCOCCOCCNC(=O)CCN1C(=O)CC(SC[C@H](NC(C)=O)C(=O)O)C1=O)C(=O)N[C@@H](Cc1ccccc1)C(=O)O)OC)N(C)C(=O)[C@@H](NC(=O)[C@H](C(C)C)N(C)C)C(C)C (stereo partly drawn) [Compound 30, Ac-Cys-Mal-PEG4-Phe-Arg-Lys(Mal-DM1)-Arg-Lys(AF)-Phe-OH] ({X2-PEG4}-FRK(DM1Mal(CH2)2CO)RK([Phe-Dolaproine-Dil-Val-NMe2Val])F-OH)	–	0.07	1.1 min	more than 10 fold	–	–
